According to the METLIN SMRT retention time set (Domingo-Almenara et al. 2019):

Test: gradient 5% acetonitrile 3 min, to 50% in 2 min, to 85% in 15 min, held 3 min, 100 µL/min
Settings: column: Zorbax Extend-C18 2.1 x 50 mm; eluents: water / acetonitrile, 0.1% formic acid
Method in brief: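 Using water and acetonitrile that each contained 0.1% formic acid, mixtures of ~100 pure standards were separated at 100 μL/min on a Zorbax Extend-C18 column (2.1 × 50 mm, 1.8 μm). The HPLC fed a quadrupole time-of-flight mass spectrometer working in positive and negative ionization mode, with dead and dwell volumes of 40 μL and 900 μL. Data were acquired over 3 months. Retention time was read from computationally picked adduct peaks after manual inspection of each.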

RP-LC retention time [s] | SMILES
970 | COc1cc(NC(=O)Nc2nccn(-c3ccc(Cl)cc3)c2=O)cc(OC)c1
542 | O=C(NCCN1CCOCC1)c1csc(-c2ccc(N3CCCC3)nc2)n1
927 | Cc1cc(C)c(NC(=O)C2CCN(c3c(C(=O)N4CCCCC4)cnc4snc(C)c34)CC2)c(C)c1
669 | O=C(CSc1nnc(-c2ccncc2)o1)Nc1cccc([N+](=O)[O-])c1
828 | COc1ccc(NC(=O)C2CCCN(c3ncnc4c3nc3n4CCCCC3)C2)cc1Cl (stereo not drawn)
734 | CCc1cccc(NC(=O)C2CCCN(c3nnc4ccccn34)C2)c1 (stereo not drawn)
762 | Cn1c(-c2cccc(C(=O)NCc3cc(F)cc(F)c3)c2)nc2cccnc21
768 | O=C(C1CC1)N1CCCC1c1nc2ccccc2s1 (stereo not drawn)
627 | O=C(NCc1ccco1)C1CCCN(c2nnc3c(Cl)cccn23)C1 (stereo not drawn)
792 | Cc1noc(C2CN(C(=O)Nc3cccc(Cl)c3C)CC23CCOCC3)n1 (stereo not drawn)
673 | CCOC(=O)C1=C(CN2CCC(C(=O)OCC)CC2)NC(=O)NC1c1ccc(Cl)cc1 (stereo not drawn)
784 | COc1cccc(NC(=O)C2c3ccccc3C(=O)N3CCc4cc(OC)c(OC)cc4C23)c1 (stereo not drawn)
634 | O=C(Cn1ncc2c(N3CCN(c4ccccn4)CC3)ncnc21)Nc1cc(F)cc(F)c1
741 | Nc1nc(N)c(-c2cccc(C(F)(F)F)c2)c(Cc2cccc(C(F)(F)F)c2)n1
671 | Cc1cc(C)n2c(Nc3ccccc3)c(-c3ccccc3)nc2n1
664 | CC(=O)N1CCC(N2C(=O)C3(CCCC3)C2c2scnc2C)CC1 (stereo not drawn)
718 | COc1ccccc1N1CCN(C(=O)Cn2nc(C(=O)N3CCOCC3)c3ccccc32)CC1
868 | COc1ccc(-n2ccc(=O)c(-c3nc(-c4cccc(F)c4)no3)n2)cc1
747 | O=C([C@@H]1C[C@H](F)CN1C(=O)NCc1ccc(F)cc1)N1CCc2ccccc2C1
770 | CC(C)Cn1cc(CCNC(=O)c2ccccc2)c2cccnc21
820 | CN(C)c1cc2c(Nc3ccc4c(cnn4Cc4ccccc4)c3)ncnc2cn1
845 | CC(C)c1cc(C(=O)Nc2ccccc2)nn1C1CCS(=O)(=O)C1 (stereo not drawn)

RP-LC retention time [s] | SMILES
753 | O=C(NCc1ccco1)C1CCN(C(=O)c2ncn3c2COC(c2ccc(Cl)cc2)C3)CC1 (stereo not drawn)
1140 | Cc1cccc(NC(=O)Nc2nccn(-c3ccc4c(c3)CCC4)c2=O)c1
762 | O=C(N[C@H](Cc1ccccc1)C(=O)NCc1cscn1)c1cccc(F)c1
879 | CC(C)NC(=O)C1CCN(c2nc3ccc(-c4cccs4)nc3s2)CC1
690 | O=C(CSCc1cnn(-c2ccccc2)c1-n1cccc1)N1CCN(c2ccccn2)CC1
653 | Cn1c(=O)c(=O)n(C)c2cc(NC(=O)c3cccs3)ccc21
727 | Cc1ccnc(NC(=O)NCCCSc2nnc(-c3ccccc3)o2)n1
646 | CCN1CCN(c2cc(C)c3cc(NC(=O)/C=C/c4ccc(OC(C)C)cc4)ccc3n2)CC1
669 | COc1ccc(-c2nc(N3CCOCC3)c3ccccc3n2)cc1
692 | COc1cccc(NC(=O)N(C)CCc2noc(COc3ccccc3F)n2)c1
839 | COc1ccc(C(=O)Nc2cccn3nc(C4CC4)nc23)cc1
985 | CC(C)Cn1cc(CCNS(=O)(=O)c2cccc(Cl)c2)c2cccnc21
677 | CCc1cc(=O)n(CC(=O)NCc2ccc3c(c2)OCO3)c(N2CCOCC2)n1
901 | CC(C)C(=O)N1CCc2ccc(NC(=O)c3ccc(Cl)c(Cl)c3)cc2C1
846 | Cc1ccc(Cl)cc1NC(=O)C1CCN(S(=O)(=O)c2cc(C(=O)N(C)C)cs2)CC1
627 | CN(C(=O)CN1CCCn2nc(C(=O)O)cc2C1=O)c1ccccc1
724 | Cc1ccc2nc(-c3cccc(Cl)c3)c(Nc3ccc4c(c3)OCCO4)n2c1
873 | COc1ccc(NC(=O)C2CCc3nc(N4CCC(C)CC4)ncc3C2)c(OC)c1 (stereo not drawn)
851 | O=c1ccc(N2CCCC(NS(=O)(=O)c3ccc(F)c(F)c3)C2)nn1CC1CC1 (stereo not drawn)
726 | CCc1ccc(-c2cc3c(=O)n(Cc4noc(CN5CCCC(C)C5)n4)ccn3n2)cc1 (stereo not drawn)
848 | Cc1ccc(C)c(NS(=O)(=O)c2cc3n(c2)CCN(CC(C)C)C3=O)c1
659 | CCOC(=O)C(C)NC(=O)N1CCN(Cc2nc3cccnc3n2-c2ccc(CC)cc2)CC1 (stereo not drawn)

RP-LC retention time [s] | SMILES
786 | COc1ccc(CC(=O)N2CCN(S(=O)(=O)c3cc4c5c(c3)CCC(=O)N5CCC4)CC2)cc1
967 | CCN1C(=O)COc2ccc(-c3csc(NC(=O)c4cccc(OC)c4)n3)cc21
605 | CCC(=O)NCc1nc2c(n1C)CN(C(=O)c1ccc(Br)cc1)CC2
614 | O=C(NCc1cccc(F)c1)C1CCN(c2cncnc2N2CCOCC2)CC1
1220 | CN(C)c1nc(Nc2ccc3c(c2)OCO3)c2cnn(-c3ccccc3)c2n1
669 | COc1ccc(CCC(=O)NCCc2cn(C)c3ncccc23)cc1
664 | O=C(CN1C(=O)C2CCCCN2c2ccc(C(=O)N3CCCC3)cc21)NCCc1ccco1 (stereo not drawn)
765 | Cc1cccc(NC(=O)CN2C(=O)NC3(CCCCC3)C2=O)c1C
664 | Cc1ccc2nc(C(=O)N3CCN(c4ccccc4C)CC3)cn2c1
578 | O=C(c1cnn(-c2ccccc2)n1)N1CC(c2nc3ccccc3[nH]2)C1
918 | Cc1nn(-c2ccc(C(=O)NCc3cc(F)cc(F)c3)cn2)c(C)c1C
937 | CCCn1c(=O)sc2cc(S(=O)(=O)N3CCC(C(=O)N4CCCCCC4)CC3)ccc21
665 | c1coc(CN2CC(Oc3ccc(-c4noc(-c5ccncc5)n4)cc3)C2)c1
812 | CC1Oc2ccc(S(=O)(=O)N3CCC(C(=O)NCc4ccc(F)cc4)CC3)cc2NC1=O (stereo not drawn)
734 | COc1ccc2[nH]cc(CCNC(=O)CN3C(=O)c4cccnc4Sc4ccccc43)c2c1
1260 | O=C(Nc1nc(-c2ccc(Cl)c(Cl)c2)cs1)c1ccc(F)c(F)c1
961 | N#Cc1cccc(-c2cn3c(n2)N(C(=O)COc2ccccc2)CCC3)c1
727 | Cc1nc(C)c(C(=O)N2CCCCCCNC(=O)[C@@H]3CCCC[C@@H]32)s1
1140 | COc1ccc(-c2noc(-c3ccc(NC(=O)c4cccs4)cc3)n2)cc1
678 | Cc1ccc(-c2cn3c(CC(=O)Nc4ccc(F)c(Cl)c4)csc3n2)cc1C
956 | CC1(C(=O)NCc2ccccc2)CN(S(=O)(=O)c2ccccc2)CC(=O)N1c1ccc(Cl)cc1 (stereo not drawn)
1080 | CCCNC(=O)c1cc(=O)[nH]c2c(Cl)cccc12

RP-LC retention time [s] | SMILES
738 | CCc1ccc(NC(=O)N2CCN(Cc3nc4ccccc4o3)CC2)cc1
878 | COc1ccc(Cl)cc1NC(=O)Cn1ncc2c(c1=O)N(CC1CC1)C(=O)CS2
696 | CCOc1ccc(CNC(=O)C2CCN(S(=O)(=O)c3cn(CC)cn3)CC2)cc1
927 | Cc1nc2cc(-c3noc(-c4ccco4)n3)ccc2n(C2CCCC2)c1=O
836 | Cc1ccc(S(=O)(=O)N2C[C@@H](F)C[C@H]2C(=O)N2CCCCC2)cc1F
904 | COc1ccc(OCc2nc(C3CN(C(=O)C4(c5ccccc5)CC4)C3)no2)cc1
649 | CCc1nccn1Cc1noc(-c2ccccc2C)n1
701 | O=C(NCc1cccc(F)c1)C1CCCN(c2nnc3c(Cl)cccn23)C1 (stereo not drawn)
758 | Cc1ccc2cc(CCC(=O)O)c(=O)[nH]c2c1
846 | CCOc1ccc(C(=O)N2CCC[C@@H]2C(=O)NCCc2csc(C)n2)cc1
577 | O=C(CN1CCOCC1)N1CC(c2nc(CCOCC3CC3)no2)C1
784 | CCOc1ccc(NC(=O)C2CCN(S(=O)(=O)c3cn(CC)cn3)CC2)cc1
1090 | O=c1ccc(-c2ccc(F)cc2)nn1Cc1nc(-c2cccc(Cl)c2)no1
558 | O=C(CCC1CCCN(c2cc(NC3CC3)ncn2)C1)NCc1ccccn1 (stereo not drawn)
770 | COCc1nncn1C1CCN(S(=O)(=O)c2ccc(C)c(Cl)c2)CC1
720 | CCC(C)NS(=O)(=O)c1cc(-c2c(C)noc2NC(C)=O)ccc1OC (stereo not drawn)
1100 | C[C@H]1CN(C(=O)Cc2c(F)cccc2Cl)C[C@@H]1c1nc(-c2ccccc2)no1
955 | CC1CCCN(c2cc(SCC(=O)Nc3ccc(F)cc3)ncn2)C1 (stereo not drawn)
1200 | Cc1cc(C(=O)N(CCn2nc(C)cc2C)c2nc3c(C(C)C)cccc3s2)on1
575 | Cc1cccc(CN2CCc3nc(C)n(CC(=O)Nc4ccc5c(c4)OCO5)c(=O)c3C2)c1
898 | COc1cc(NC(=O)CN2C(=O)CCc3cc(Br)ccc32)cc(OC)c1
967 | CC1=C(c2ccc(C)c(C)c2)S(=O)(=O)N=C1N1CCCN(C(=O)CC2CCCC2)CC1
